Earlier results as cited in patent US6797704B2, “Systemic delivery of compounds through non-invasive bladder administration” (The Johns Hopkins University, priority 2000, dated 2004).

B1: recombinant murine interleukin-12: cytokine co-injected with naked DNA in a literature lung tumor study (protein, UniProt P43431 23-215; P43432 23-335, looked up)
Interleukin-12 subunit alpha: RVIPVSGPARCLSQSRNLLKTTDDMVKTAREKLKHYSCTAEDIDHEDITRDQTSTLKTCLPLELHKNESCLATRETSSTTRGSCLPPQKTSLMMTLCLGSIYEDLKMYQTEFQAINAALQNHNHQQIILDKGMLVAIDELMQSLNHNGETLRQKPPVGEADPYRVKMKLCILLHAFSTRVVTINRVMGYLSSA
Interleukin-12 subunit beta: MWELEKDVYVVEVDWTPDAPGETVNLTCDTPEEDDITWTSDQRHGVIGSGKTLTITVKEFLDAGQYTCHKGGETLSHSHLLLHKKENGIWSTEILKNFKNKTFLKCEAPNYSGRFTCSWLVQRNMDLKFNIKSSSSSPDSRAVTCGMASLSAEKVTLDQRDYEKYSVSCQEDVTCPTAEETLPIELALEARQQNKYENYSTSFFIRDIIKPDPPKNLQMKPLKNSQVEVSWEYPDSWSTPHSYFSLKFFVRIQRKKEKMKETEEGCNQKGAFLVEKTSTEVQCKGGNVCVQAQDRYYNSSCSKWACVPCRVRS

Tests used:
[1] = men
murine lung tumors = settings: co-injection with naked DNA; from more than 250

Molecule | systemic absorption following intravesical administration [1] | number of primary lung metastases (murine lung tumors)
COc1cccc2c1C(=O)c1c(O)c3c(c(O)c1C2=O)C[C@@](O)(C(=O)CO)C[C@@H]3O[C@H]1C[C@H](N)[C@H](O)[C@H](C)O1 [doxorubicin] | minimal | 
B1 |  | around 10
